Experimental data taken from US9708318B2, “Bicyclic heterocycles as FGFR4 inhibitors” (Incyte Corporation, priority 2015, dated 2017).
Like-named read-outs stand apart in the source and are kept apart here.

Key:
FGFR4 = FGFR4 (Homo sapiens (Human), UniProt P22455); experiment: FGFR Enzymatic Assay (FRET peptide phosphorylation), FGFR4; type: biochemical; details: for FGFR1/FGFR4 IC50 ratio / FGFR2/FGFR4 IC50 ratio / FGFR3/FGFR4 IC50 ratio: FGFR4 selectivity
Protocol: (§1) The inhibitor potency of the exemplified compounds was measured in an enzyme assay that measures peptide phosphorylation using FRET measurements to detect product formation. Inhibitors were serially diluted in DMSO and a volume of 0.5 μL was transferred to the wells of a 384-well plate.
(§2) The enzymes were purchased from Millipore or Invitrogen.
(§3) GraphPad prism3 was used to analyze the data.

FGFR2 = FGFR2 (Homo sapiens (Human), UniProt P21802); experiment: FGFR Enzymatic Assay (FRET peptide phosphorylation), FGFR2; type: biochemical
FGFR2, sequence (P21802 22-821): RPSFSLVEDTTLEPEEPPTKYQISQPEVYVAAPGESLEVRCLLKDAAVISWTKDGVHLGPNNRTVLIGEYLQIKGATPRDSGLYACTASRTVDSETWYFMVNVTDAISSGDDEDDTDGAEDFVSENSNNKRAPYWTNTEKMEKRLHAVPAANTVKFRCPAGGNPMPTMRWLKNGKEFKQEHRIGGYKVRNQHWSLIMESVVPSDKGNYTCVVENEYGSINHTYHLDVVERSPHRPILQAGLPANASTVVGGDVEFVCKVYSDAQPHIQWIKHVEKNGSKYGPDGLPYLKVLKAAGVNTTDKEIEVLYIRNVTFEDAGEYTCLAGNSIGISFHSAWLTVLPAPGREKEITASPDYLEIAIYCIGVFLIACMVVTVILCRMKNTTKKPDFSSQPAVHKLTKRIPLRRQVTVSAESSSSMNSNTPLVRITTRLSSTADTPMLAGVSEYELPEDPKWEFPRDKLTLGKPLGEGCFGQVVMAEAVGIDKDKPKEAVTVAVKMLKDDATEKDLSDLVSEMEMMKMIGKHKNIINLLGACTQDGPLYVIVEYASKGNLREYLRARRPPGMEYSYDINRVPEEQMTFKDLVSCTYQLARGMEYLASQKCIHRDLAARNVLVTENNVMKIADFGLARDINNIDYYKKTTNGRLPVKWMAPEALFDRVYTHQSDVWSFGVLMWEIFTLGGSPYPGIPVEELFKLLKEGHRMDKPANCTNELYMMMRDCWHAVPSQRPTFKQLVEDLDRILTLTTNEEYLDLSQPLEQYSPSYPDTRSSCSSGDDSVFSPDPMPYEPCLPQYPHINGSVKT
Protocol: as §1, §2, §3

FGFR3 enzyme = FGFR3 enzyme (Homo sapiens (Human), UniProt P22607); experiment: FGFR Enzymatic Assay (FRET peptide phosphorylation), FGFR3; type: biochemical; details: for FGFR1/FGFR3 IC50 ratio / FGFR4/FGFR3 IC50 ratio: FGFR3 selectivity; for IC50: read-out: FGFR3 IC50
FGFR3 enzyme, sequence (P22607 23-806): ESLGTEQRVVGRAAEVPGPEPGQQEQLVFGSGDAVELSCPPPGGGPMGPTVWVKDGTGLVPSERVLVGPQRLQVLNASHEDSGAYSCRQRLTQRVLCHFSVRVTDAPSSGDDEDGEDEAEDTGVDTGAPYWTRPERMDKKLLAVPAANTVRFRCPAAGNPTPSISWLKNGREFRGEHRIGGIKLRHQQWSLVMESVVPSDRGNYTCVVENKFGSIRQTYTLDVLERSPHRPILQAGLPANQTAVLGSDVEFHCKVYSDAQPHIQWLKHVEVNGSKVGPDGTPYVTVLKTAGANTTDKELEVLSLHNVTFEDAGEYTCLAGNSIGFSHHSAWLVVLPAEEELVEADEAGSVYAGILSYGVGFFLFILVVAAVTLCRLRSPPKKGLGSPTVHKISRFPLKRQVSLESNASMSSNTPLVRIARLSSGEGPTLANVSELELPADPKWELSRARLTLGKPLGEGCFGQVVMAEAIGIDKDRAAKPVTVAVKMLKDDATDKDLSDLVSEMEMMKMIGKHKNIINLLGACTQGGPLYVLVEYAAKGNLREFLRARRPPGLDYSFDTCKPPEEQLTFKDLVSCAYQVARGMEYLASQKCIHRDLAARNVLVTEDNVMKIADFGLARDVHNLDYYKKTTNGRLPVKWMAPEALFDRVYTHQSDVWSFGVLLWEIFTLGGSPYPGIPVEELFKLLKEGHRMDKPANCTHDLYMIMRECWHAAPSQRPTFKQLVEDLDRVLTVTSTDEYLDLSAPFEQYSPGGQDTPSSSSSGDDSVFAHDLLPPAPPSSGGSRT
Protocol: as §1, §3

FGFR1 = FGFR1 (Homo sapiens (Human), UniProt P11362); experiment: FGFR Enzymatic Assay (FRET peptide phosphorylation), FGFR1
FGFR1, sequence (P11362 22-822): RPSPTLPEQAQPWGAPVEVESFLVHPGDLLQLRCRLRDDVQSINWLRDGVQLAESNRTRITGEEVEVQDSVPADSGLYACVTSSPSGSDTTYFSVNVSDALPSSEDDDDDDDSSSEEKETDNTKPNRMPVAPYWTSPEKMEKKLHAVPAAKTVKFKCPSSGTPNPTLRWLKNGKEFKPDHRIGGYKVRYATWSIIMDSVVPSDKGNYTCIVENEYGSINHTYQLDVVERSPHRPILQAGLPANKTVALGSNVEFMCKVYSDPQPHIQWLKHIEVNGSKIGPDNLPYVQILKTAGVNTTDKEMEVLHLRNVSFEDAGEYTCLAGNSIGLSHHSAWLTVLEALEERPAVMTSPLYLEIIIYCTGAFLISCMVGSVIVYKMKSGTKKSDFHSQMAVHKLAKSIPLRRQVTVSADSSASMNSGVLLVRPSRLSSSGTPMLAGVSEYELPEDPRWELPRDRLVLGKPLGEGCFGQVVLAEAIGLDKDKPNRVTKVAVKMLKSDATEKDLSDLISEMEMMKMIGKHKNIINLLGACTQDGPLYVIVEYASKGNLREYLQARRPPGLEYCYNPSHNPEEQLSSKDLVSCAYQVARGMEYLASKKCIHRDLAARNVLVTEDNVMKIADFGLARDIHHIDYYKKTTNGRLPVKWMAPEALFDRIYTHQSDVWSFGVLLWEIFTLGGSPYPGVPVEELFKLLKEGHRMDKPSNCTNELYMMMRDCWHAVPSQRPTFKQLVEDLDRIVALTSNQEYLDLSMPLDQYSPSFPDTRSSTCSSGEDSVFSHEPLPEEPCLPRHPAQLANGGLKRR

[1] = FGFR1 IC50 (nM), pre-incubated for 4 hours
[2] = pre-incubated for 5 to 10 minutes

FGFR4, sequence (P22455 22-802): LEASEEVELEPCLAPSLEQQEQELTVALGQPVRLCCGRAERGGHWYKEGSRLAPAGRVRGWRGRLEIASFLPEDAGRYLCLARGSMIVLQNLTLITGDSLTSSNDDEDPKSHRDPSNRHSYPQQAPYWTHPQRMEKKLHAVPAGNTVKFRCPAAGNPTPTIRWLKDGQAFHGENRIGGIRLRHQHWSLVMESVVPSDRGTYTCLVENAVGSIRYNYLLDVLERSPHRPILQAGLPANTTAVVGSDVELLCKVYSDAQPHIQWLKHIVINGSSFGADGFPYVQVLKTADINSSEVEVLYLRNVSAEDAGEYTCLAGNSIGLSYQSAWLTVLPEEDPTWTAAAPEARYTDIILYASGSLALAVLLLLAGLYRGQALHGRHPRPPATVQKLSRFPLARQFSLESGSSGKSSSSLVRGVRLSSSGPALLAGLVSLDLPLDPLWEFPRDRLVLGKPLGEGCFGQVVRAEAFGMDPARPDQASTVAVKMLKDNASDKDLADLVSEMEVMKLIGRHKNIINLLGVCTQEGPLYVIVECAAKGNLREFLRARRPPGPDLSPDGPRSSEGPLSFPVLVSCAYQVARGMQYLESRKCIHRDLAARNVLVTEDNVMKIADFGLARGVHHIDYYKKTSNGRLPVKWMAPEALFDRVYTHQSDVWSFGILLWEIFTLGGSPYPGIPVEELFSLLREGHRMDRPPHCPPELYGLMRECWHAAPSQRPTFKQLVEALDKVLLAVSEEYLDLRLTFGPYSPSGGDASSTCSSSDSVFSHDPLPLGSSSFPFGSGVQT

Row | Structure (SMILES) | IC50 (FGFR4; pre-incubated for 4 hours) | IC50 (FGFR2; pre-incubated for 4 hours) | FGFR1/FGFR3 IC50 ratio (FGFR3 enzyme; pre-incubated for 4 hours) | FGFR4/FGFR3 IC50 ratio (FGFR3 enzyme; pre-incubated for 4 hours) | IC50 (FGFR3 enzyme; pre-incubated for 4 hours) | IC50 (FGFR1; [1]) | FGFR1/FGFR4 IC50 ratio (FGFR4; [2]) | FGFR2/FGFR4 IC50 ratio (FGFR4; [2]) | FGFR3/FGFR4 IC50 ratio (FGFR4; [2]) | FGFR1/FGFR4 IC50 ratio (FGFR4; pre-incubated for 4 hours) | FGFR2/FGFR4 IC50 ratio (FGFR4; pre-incubated for 4 hours) | FGFR3/FGFR4 IC50 ratio (FGFR4; pre-incubated for 4 hours) | IC50 (FGFR4; [2]) | IC50 (FGFR2; [2]) | IC50 (FGFR3 enzyme; [2]) | IC50 (FGFR1; read-out: FGFR1 IC50, pre-incubated for 5 to 10 minutes) | IC50 (FGFR1; read-out: FGFR1 IC50, pre-incubated for 4 hours)
1 | COc1cc(N2C(=O)N(c3c(F)c(OC)cc(OC)c3F)Cc3cnc(-c4cn(C)nc4C)cc32)ccc1C#N [Example 81, 4-(3-(2,6-difluoro-3,5-dimethoxyphenyl)-7-(1,3-dimethyl-1H-pyrazol-4-yl)-2-oxo-3,4-dihydropyrido[4,3-d]pyrimidin-1(2H)-yl)-2-methoxybenzonitrile] | > 200 nM | 10 to 30 nM | >5 | >10 | 10 to 30 nM | 30 to 200 nM |  |  |  |  |  |  |  |  |  |  | 
2 | COc1cc(OC)c(F)c(N2Cc3cnc(-c4cncc(N5CCOCC5)c4)cc3C3(CC3)C2=O)c1F [Example 6, 2′-(2,6-difluoro-3,5-dimethoxyphenyl)-6′-(5-morpholinopyridin-3-yl)-1′H-spiro[cyclopropane-1,4′-[2,7]naphthyridin]-3′(2′H)-one] | < 10 nM | > 200 nM | >3 |  | 30 to 200 nM |  | >100 | >100 | >50 | >100 | >100 | >25 | < 10 nM | > 200 nM | 30 to 200 nM | > 200 nM | > 200 nM
3 | COc1cc(OC)c(F)c(N2Cc3cnc(-c4cn(C)nc4C)cc3N(Cc3ccc(F)cc3)C2=O)c1F [Example 34, 3-(2,6-difluoro-3,5-dimethoxyphenyl)-7-(1,3-dimethyl-1H-pyrazol-4-yl)-1-(4-fluorobenzyl)-3,4-dihydropyrido[4,3-d]pyrimidin-2(1H)-one] | 30 to 200 nM | 10 to 30 nM | >5 | >10 | < 10 nM | 30 to 200 nM |  |  |  |  |  |  |  |  |  |  | 
4 | CCN1C(=O)N(c2c(F)c(OC)cc(OC)c2F)Cc2cnc(-c3ccc(C(=O)NCCO)nc3)cc21 [Example 177, 5-(3-(2,6-difluoro-3,5-dimethoxyphenyl)-1-ethyl-2-oxo-1,2,3,4-tetrahydropyrido[4,3-d]pyrimidin-7-yl)-N-(2-hydroxyethyl)picolinamide] | 10 to 30 nM | < 10 nM | >5 | >10 | < 10 nM | 10 to 30 nM |  |  |  |  |  |  |  |  |  |  | 
5 | COc1cc(OC)c(F)c(N2Cc3cnc(-c4cn(C)nc4C)cc3N(c3cnc(C)cn3)C2=O)c1F [Example 107, 3-(2,6-difluoro-3,5-dimethoxyphenyl)-7-(1,3-dimethyl-1H-pyrazol-4-yl)-1-(5-methylpyrazin-2-yl)-3,4-dihydropyrido[4,3-d]pyrimidin-2(1H)-one] | 30 to 200 nM | 10 to 30 nM | >3 | >10 | 10 to 30 nM | 30 to 200 nM |  |  |  |  |  |  |  |  |  |  | 

Further lines, results first:

Row | IC50 (FGFR4; pre-incubated for 4 hours) | IC50 (FGFR2; pre-incubated for 4 hours) | FGFR1/FGFR3 IC50 ratio (FGFR3 enzyme; pre-incubated for 4 hours) | FGFR4/FGFR3 IC50 ratio (FGFR3 enzyme; pre-incubated for 4 hours) | IC50 (FGFR3 enzyme; pre-incubated for 4 hours) | IC50 (FGFR1; [1]) | FGFR1/FGFR4 IC50 ratio (FGFR4; [2]) | FGFR2/FGFR4 IC50 ratio (FGFR4; [2]) | FGFR3/FGFR4 IC50 ratio (FGFR4; [2]) | FGFR1/FGFR4 IC50 ratio (FGFR4; pre-incubated for 4 hours) | FGFR2/FGFR4 IC50 ratio (FGFR4; pre-incubated for 4 hours) | FGFR3/FGFR4 IC50 ratio (FGFR4; pre-incubated for 4 hours) | IC50 (FGFR4; [2]) | IC50 (FGFR2; [2]) | IC50 (FGFR3 enzyme; [2]) | IC50 (FGFR1; read-out: FGFR1 IC50, pre-incubated for 5 to 10 minutes) | IC50 (FGFR1; read-out: FGFR1 IC50, pre-incubated for 4 hours) | Structure (SMILES)
6 | 10 to 30 nM | 10 to 30 nM | >5 | >3 | < 10 nM | 30 to 200 nM |  |  |  |  |  |  |  |  |  |  |  | COc1cc(OC)c(F)c(N2Cc3cnc(-c4cn(CC#N)nc4C)cc3C3(CC3)C2=O)c1F [Example 153, 2-(4-(2′-(2,6-difluoro-3,5-dimethoxyphenyl)-3′-oxo-2′,3′-dihydro-1′H-spiro[cyclopropane-1,4′-[2,7]naphthyridine]-6′-yl)-3-methyl-1H-pyrazol-1-yl)acetonitrile]
7 | 30 to 200 nM | 10 to 30 nM | >10 | >10 | < 10 nM | 30 to 200 nM |  |  |  |  |  |  |  |  |  |  |  | COc1cc(OC)c(F)c(N2Cc3cnc(-c4cn(C)nc4C)cc3N(c3ccncn3)C2=O)c1F [Example 45, 3-(2,6-difluoro-3,5-dimethoxyphenyl)-7-(1,3-dimethyl-1H-pyrazol-4-yl)-1-pyrimidin-4-yl-3,4-dihydropyrido[4,3-d]pyrimidin-2(1H)-one]
